Assay results from US20250368648A1, “MULTI-CYCLIC IRAK AND FLT3 INHIBITING COMPOUNDS AND USES THEREOF” (CHILDREN'S HOSPITAL MEDICAL CENTER, priority 2022, published 2025).

Columns and labels:
FLT3 K663Q = target: T1, FLT3 K663Q (Homo sapiens, UniProt P36888, K663Q); assay: DiscoverX KINOMEscan competition binding, FLT3 K663Q; settings: no ATP
T1 construct: purchased DiscoverX (KINOMEscan); host or cells: E. coli (T7 phage) or HEK-293
T1 sequence (P36888 27-993 K663Q): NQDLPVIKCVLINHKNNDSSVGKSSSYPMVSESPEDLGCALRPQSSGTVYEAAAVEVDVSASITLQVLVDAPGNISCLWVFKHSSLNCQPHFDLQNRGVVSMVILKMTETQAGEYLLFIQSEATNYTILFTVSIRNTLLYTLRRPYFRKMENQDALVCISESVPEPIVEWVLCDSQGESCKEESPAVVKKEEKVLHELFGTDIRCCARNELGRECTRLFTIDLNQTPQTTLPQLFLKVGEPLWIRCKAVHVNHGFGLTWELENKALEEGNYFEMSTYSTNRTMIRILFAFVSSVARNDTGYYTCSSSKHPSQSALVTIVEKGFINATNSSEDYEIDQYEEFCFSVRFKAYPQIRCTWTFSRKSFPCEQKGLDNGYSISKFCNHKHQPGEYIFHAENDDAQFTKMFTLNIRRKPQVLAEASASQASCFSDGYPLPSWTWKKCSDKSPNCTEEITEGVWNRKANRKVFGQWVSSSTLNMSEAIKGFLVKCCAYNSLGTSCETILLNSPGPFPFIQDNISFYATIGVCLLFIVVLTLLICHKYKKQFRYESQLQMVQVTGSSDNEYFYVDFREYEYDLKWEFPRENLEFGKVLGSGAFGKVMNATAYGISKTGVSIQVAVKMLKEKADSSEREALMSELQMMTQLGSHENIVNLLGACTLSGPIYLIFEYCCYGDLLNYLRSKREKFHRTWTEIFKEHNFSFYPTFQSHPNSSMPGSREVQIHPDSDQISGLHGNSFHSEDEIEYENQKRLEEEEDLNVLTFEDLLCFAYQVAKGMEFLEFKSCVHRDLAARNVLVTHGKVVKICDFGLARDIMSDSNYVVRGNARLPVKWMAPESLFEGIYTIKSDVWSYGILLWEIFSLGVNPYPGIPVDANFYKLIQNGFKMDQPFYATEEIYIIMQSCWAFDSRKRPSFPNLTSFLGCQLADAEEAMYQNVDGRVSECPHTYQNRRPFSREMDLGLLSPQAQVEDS
From the text: (§1) Kinase binding data were obtained for various exemplary compounds prepared according to Examples 2-15 using the DiscoverX KINOMEscan® active site-directed competition binding site-directed assay protocol described below. […] As a result, the data report thermodynamic interaction affinities (Kd values), rather than IC50 values that are dependent on ATP concentrations. The assay uses a DNA-tagged version of the protein kinase, and an immobilized ligand bound to a solid support. Compounds that directly or indirectly prevent kinase binding to the immobilized ligand reduce the amount of kinase captured on the solid support, which is detected using an ultra-sensitive qPCR method. Affinity constants reported from the assay have been reported to be independent of the immobilized ligand used that is coupled to the solid support (See supplemental information in Fabian, M. A. et. al., (2005) Nat. […] Wodicka, L. […] Biol. 17, 1241-1249.) Kinase-tagged T7 phage strains were prepared in an E. coli host derived from the BL21 strain. E. coli were grown to log-phase and infected with T7 phage and incubated with shaking at 32° C. until lysis. […] Kds were determined using an 11-point 3-fold compound dilution series with three DMSO control points. […] The kinase concentration in the eluates was measured by qPCR. Binding constants (Kds) were calculated with a standard dose-response curve using the Hill equation. […]

IRAK1 = target: T2, IRAK1 (Homo sapiens, UniProt P51617); assay: DiscoverX KINOMEscan competition binding, IRAK1; settings: no ATP
T2 construct: purchased RBC (Reaction Biology) HotSpot assay
T2 sequence (P51617 whole entry): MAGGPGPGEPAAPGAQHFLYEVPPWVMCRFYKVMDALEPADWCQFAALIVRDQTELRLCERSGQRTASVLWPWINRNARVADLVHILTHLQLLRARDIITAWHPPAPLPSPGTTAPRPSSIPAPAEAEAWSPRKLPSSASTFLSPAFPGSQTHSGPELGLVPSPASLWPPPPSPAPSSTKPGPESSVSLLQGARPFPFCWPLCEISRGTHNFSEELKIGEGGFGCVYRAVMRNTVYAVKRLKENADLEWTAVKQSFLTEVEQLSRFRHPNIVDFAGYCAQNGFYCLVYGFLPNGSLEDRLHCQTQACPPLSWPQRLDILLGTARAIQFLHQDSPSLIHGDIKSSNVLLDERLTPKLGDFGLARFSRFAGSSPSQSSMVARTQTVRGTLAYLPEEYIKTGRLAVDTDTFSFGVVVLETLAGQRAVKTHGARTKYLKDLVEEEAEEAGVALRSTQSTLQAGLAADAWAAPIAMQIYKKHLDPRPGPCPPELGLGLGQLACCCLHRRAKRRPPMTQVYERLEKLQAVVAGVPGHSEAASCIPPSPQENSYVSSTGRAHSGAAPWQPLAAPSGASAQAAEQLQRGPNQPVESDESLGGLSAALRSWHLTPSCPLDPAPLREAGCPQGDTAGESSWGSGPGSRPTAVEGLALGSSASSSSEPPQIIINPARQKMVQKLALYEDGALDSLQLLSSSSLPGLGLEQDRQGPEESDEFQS
From the text: as §1

COc1cc2ncc(-c3nc(N[C@H]4CNCC[C@@H]4F)c(F)cc3F)n2nc1C1CCC1 [Compound 15a, 6-(6-cyclobutyl-7-methoxyimidazo[1,2-b]pyridazin-3-yl)-3,5-difluoro-N-((3S,4S)-4-fluoropiperidin-3-yl)pyridin-2-amine]
Kd (FLT3 K663Q): 0.62 nM | Kd (IRAK1): 1.4 nM
